From publication PMC3747139 (PLoS ONE, 2013) come the findings set out here.

Like-named read-outs stand apart in the source and are kept apart here. Marks after values point to notes of the source that are not given here.

Series [1] in a line: Cell count assay (trypan blue). The settings on record: human; for viability at 24 h: read-out: Number of viable cells after 24 h of ligand treatment; for viability at 48 h: read-out: Number of viable cells after 48 h of ligand treatment. It counts as cell-based. On the set-up: concentration or dose not given beside the values. On the procedure: (§1) Normal and tumor cell lines were seeded at 20000–40000 cells/cm^2 with 0.2 mL/cm^2 media and incubated for 48 h at 37°C, 6% CO2, 95% relative humidity. […] After 24 h and 48 h of incubation, cells were washed with 300 µl PBS or 0.02% EDTA, trypsinized, followed by harvesting at 37°C. 200 µl cell suspension was transferred into 1.5 ml microcentrifuge tube. To the cell suspension, 300 µl PBS followed by 500 µl of 0.4% trypan blue solution was added. To get the homogenised solution, the microcentrifuge tube was gently tapped for 5 min, 20 µl of cell suspension was loaded in to a chamber of the haemocytometer.

In a further series the test system is A549. The series can be described thus: Cell count assay (trypan blue). Format: cell-based, human. The settings on record: for Number of viable cells after 24 h of ligand treatment: A549, 24 h; for Number of viable cells after 48 h of ligand treatment: A549, 48 h. On the procedure: as §1
The next series relates to B16F10. The series can be described thus: Cell count assay (trypan blue). Format: cell-based, human. Particulars: for Number of viable cells after 24 h of ligand treatment: B16F10, 24 h; for Number of viable cells after 48 h of ligand treatment: B16F10, 48 h. On the procedure:
as §1

Another series deals with MCF-7. The series can be described thus: Cell count assay (trypan blue). Particulars: for Number of viable cells after 24 h of ligand treatment: MCF-7, 24 h; for Number of viable cells after 48 h of ligand treatment: MCF-7, 48 h. Format: cell-based, human. The procedure: as §1
Another series has as its system HQF DNA [d(T2AG3)4]. The series can be described thus: SYBR Green melting study with HQF DNA. Format: binding, human. Particulars: melting temperature of HQF DNA (5 µM) in presence of 1 µM ligand. On the procedure: When quadruplex DNA melts to form ssDNA structure, SG fluorescence intensity gradually reduces as SG has no binding to ssDNA. Each time, 5 µM of HQF DNA [d(T2AG3)4)], 5 µM of dsDNA (prepared by mixing equal concentration of poly-dA-dT and poly-dT-dA), 5 µM ssDNA ( poly dT alone) and 1 µM of each ligand was incubated at 4°C for 16 h, and used for melting studies. […] Affinity, stoichiometry and thermodynamic parameters for quadruplex-ligand complex were studied with 60 µM of ligand and 10 µM of HQF DNA using Microcal VP-ITC (Northampton, MA, USA). Ligand addition to G-quadruplex DNA was made every 180 seconds. Titration experiments were performed thrice and blank correction was made each time to minimize error.

Setting [2] is: CRL-2115 cells (normal cell line), CRL-2115, 24 h.
[3] abbreviates: CRL-2115 cells (normal cell line), CRL-2115, 48 h.
The mark [4] stands for this setting: CRL-2120 cells (normal cell line), CRL-2120, 24 h.
Setting [5] is: CRL-2120 cells (normal cell line), CRL-2120, 48 h.
Where [6] appears, read: NCM-460 cells (normal cell line), NCM-460, 24 h.
The mark [7] stands for this setting: NCM-460 cells (normal cell line), NCM-460, 48 h.

In the case of `c1ccc(Cn2nnc(-c3ccccc3)c2-c2ccccc2)cc1` [Ligand L4, 1-Benzyl-4,5-diphenyl-1H-1,2,3-triazole], the viability at 24 h in series [1] (setting [2]), in series [1] (setting [4]) and in series [1] (setting [6]) was 80 to 90% throughout. For the same compound, the viability at 48 h in series [1] (setting [3]) lay in the range of 50 to 60%; in series [1] (setting [5]), 80 to 90%; in series [1] (setting [7]) it was 50 to 60%. Further, the “Number of viable cells after 24 h of ligand treatment” value in the series on A549 is on record as “+ (Viable cells in the range of 80%–90%)”; in the series on B16F10, “++/++ (Viable cells in the range of 50%–60%)”; in the series on MCF-7 it was “++/++ (Viable cells in the range of 50%–60%)”. Besides, the “Number of viable cells after 48 h of ligand treatment” value in the series with A549 is “++ (Viable cells in the range of 50%–60%)”; in the series on B16F10 it was “++/++ (Viable cells in the range of 50%–60%)”; in the series with MCF-7, “++/++ (Viable cells in the range of 50%–60%)”. In addition, in the series on HQF DNA [d(T2AG3)4], the Tm is 32 ^o C.

Consider `CCCCc1nnn(Cc2ccccc2)c1/C=C/c1ccccc1` [Ligand L5, (E)-1-Benzyl-4-butyl-5-styryl-1H-1,2,3-triazole], for which the viability at 24 h in series [1] (setting [2]), in series [1] (setting [4]) and in series [1] (setting [6]) was 80 to 90% in each case. For the same compound, the viability at 48 h in series [1] (setting [3]), in series [1] (setting [5]) and in series [1] (setting [7]) was 50 to 60% each time. Further, the “Number of viable cells after 24 h of ligand treatment” value was “+ (Viable cells in the range of 80%–90%)” in the series on A549, “++/++ (Viable cells in the range of 50%–60%)” in the series with B16F10 and “++/++ (Viable cells in the range of 50%–60%)” in the series on MCF-7. The “Number of viable cells after 48 h of ligand treatment” value is given as “++ (Viable cells in the range of 50%–60%)” in the series on A549, “++/++ (Viable cells in the range of 50%–60%)” in the series with B16F10 and “++/++ (Viable cells in the range of 50%–60%)” in the series on MCF-7. Besides, in the series with HQF DNA [d(T2AG3)4], the Tm was 33 ^o C.

As to `CCCCc1nnn(Cc2ccccc2)c1-c1cccc(O)c1` [Ligand L6, 3-(3-Benzyl-5-butyl-3H-1,2,3-triazol-4-yl)phenol], the figures for the viability at 24 h in series [1] (setting [2]), in series [1] (setting [4]) and in series [1] (setting [6]) were 80 to 90%, 80 to 90% and 50 to 60%, respectively. Moreover, the viability at 48 h in series [1] (setting [3]), in series [1] (setting [5]) and in series [1] (setting [7]) was 50 to 60% in each case. Further, the “Number of viable cells after 24 h of ligand treatment” value in the series with A549 is on record as “++/++ (Viable cells in the range of 50%–60%)”; in the series with B16F10, “+ (Viable cells in the range of 80%–90%)”; in the series on MCF-7, “+ (Viable cells in the range of 80%–90%)”. Besides, the entries for the “Number of viable cells after 48 h of ligand treatment” value with A549, with B16F10 and in the series on MCF-7 were “++/++ (Viable cells in the range of 50%–60%)”, “++ (Viable cells in the range of 50%–60%)” and “++ (Viable cells in the range of 50%–60%)”, respectively. In addition, in the series on HQF DNA [d(T2AG3)4], the Tm is listed as 33 ^o C.

As for `Oc1cccc(-c2c(-c3ccccc3)nnn2CC2CCCCO2)c1` (stereo not shown) [Ligand L8], in the series with HQF DNA [d(T2AG3)4], the Tm was 27 ^o C.
